ChEMBL document CHEMBL1201862, “PubChem BioAssay data set” (2004)
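Grown in 96-well plates, cells were treated for 48 hours with each compound at five concentrations. Insufficient inhibition: endpoint recorded as highest concentration tested. GI50 marks 50% less growth.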 Activity calls are given as the source filed them. Rule as the data show it: active = GI50 up to about 1.1 µM and inactive = higher.

Assays:
Assay in all cases: inhibition of tumour cell growth, NCI panel, 48 h
MOLT-4 = system: MOLT-4
SK-MEL-28 = system: SK-MEL-28
UO-31 = system: UO-31
HOP-92 = system: HOP-92
DMS-114 = system: DMS-114
DLD-1 = system: DLD-1
786-0 = system: 786-0
HOP-18 = system: HOP-18
HCT-116 = system: HCT-116
HOP-62 = system: HOP-62
HCC 2998 = system: HCC 2998
CCRF-CEM = system: CCRF-CEM
TK-10 = system: TK-10
K562 = system: K562
SN12C = system: SN12C
SK-MEL-5 = system: SK-MEL-5
OVCAR-5 = system: OVCAR-5
COLO 205 = system: COLO 205
A549 = system: A549
NCI-H23 = system: NCI-H23
ACHN = system: ACHN
OVCAR-4 = system: OVCAR-4
DMS-273 = system: DMS-273
SR = system: SR
UACC-62 = system: UACC-62
RPMI-8226 = system: RPMI-8226
LXFL 529 = system: LXFL 529
XF498 = system: XF498
SF-539 = system: SF-539
KM-20L2 = system: KM-20L2
NCI-H460 = system: NCI-H460
EKVX = system: EKVX
IGROV-1 = system: IGROV-1
SW-620 = system: SW-620
UACC-257 = system: UACC-257
NCI-H226 = system: NCI-H226
OVCAR-3 = system: OVCAR-3
LOX IMVI = system: LOX IMVI
HCT-15 = system: HCT-15
KM12 = system: KM12
CAKI-1 = system: CAKI-1
SK-MEL-2 = system: SK-MEL-2
RXF 631 = system: RXF 631
M19-MEL = system: M19-MEL
NCI-H522 = system: NCI-H522
SF-295 = system: SF-295
HT-29 = system: HT-29
SK-OV-3 = system: SK-OV-3
SNB-78 = system: SNB-78
Malme-3M = system: Malme-3M
SNB-75 = system: SNB-75
M14 = system: M14
SF-268 = system: SF-268
U-251 = system: U-251
HL-60 = system: HL-60
A498 = system: A498
SNB-19 = system: SNB-19
OVCAR-8 = system: OVCAR-8

CC(C)C(/N=C1\CC2CCC1(C(=O)Nc1ccccc1O)C2(C)C)c1ccccc1 (stereo not drawn)
GI50 (MOLT-4): 3.18 µM (inactive)
GI50 (SK-MEL-28): > 10 µM (inactive)
GI50 (UO-31): > 10 µM (inactive)
GI50 (HOP-92): 2.23 µM (inactive)
GI50 (DMS-114): > 10 µM (inactive)
GI50 (DLD-1): > 10 µM (inactive)
GI50 (786-0): > 10 µM (inactive)
GI50 (HOP-18): > 10 µM (inactive)
GI50 (HCT-116): 6.61 µM (inactive)
GI50 (HOP-62): > 10 µM (inactive)
GI50 (HCC 2998): > 10 µM (inactive)
GI50 (CCRF-CEM): > 10 µM (inactive)
GI50 (TK-10): > 10 µM (inactive)
GI50 (K562): > 10 µM (inactive)
GI50 (SN12C): > 10 µM (inactive)
GI50 (SK-MEL-5): 6.44 µM (inactive)
GI50 (OVCAR-5): > 10 µM (inactive)
GI50 (COLO 205): > 10 µM (inactive)
GI50 (A549): > 10 µM (inactive)
GI50 (NCI-H23): 7.67 µM (inactive)
GI50 (ACHN): > 10 µM (inactive)
GI50 (OVCAR-4): > 10 µM (inactive)
GI50 (DMS-273): > 10 µM (inactive)
GI50 (SR): > 10 µM (inactive)
GI50 (UACC-62): > 10 µM (inactive)
GI50 (RPMI-8226): 5.11 µM (inactive)
GI50 (LXFL 529): > 10 µM (inactive)
GI50 (XF498): 7.29 µM (inactive)
GI50 (SF-539): > 10 µM (inactive)
GI50 (KM-20L2): > 10 µM (inactive)
GI50 (NCI-H460): 7.67 µM (inactive)
GI50 (EKVX): 7.43 µM (inactive)
GI50 (IGROV-1): > 10 µM (inactive)
GI50 (SW-620): 4.8 µM (inactive)
GI50 (UACC-257): 5.89 µM (inactive)
GI50 (NCI-H226): > 10 µM (inactive)
GI50 (OVCAR-3): > 10 µM (inactive)
GI50 (LOX IMVI): > 10 µM (inactive)
GI50 (HCT-15): > 10 µM
GI50 (KM12): > 10 µM (inactive)
GI50 (CAKI-1): > 10 µM (inactive)
GI50 (SK-MEL-2): > 10 µM (inactive)
GI50 (RXF 631): > 10 µM (inactive)
GI50 (M19-MEL): > 10 µM (inactive)
GI50 (NCI-H522): 6.58 µM (inactive)
GI50 (SF-295): > 10 µM (inactive)
GI50 (HT-29): 9.75 µM (inactive)
GI50 (SK-OV-3): > 10 µM (inactive)
GI50 (SNB-78): > 10 µM (inactive)
GI50 (Malme-3M): > 10 µM (inactive)
GI50 (SNB-75): > 10 µM (inactive)
GI50 (M14): > 10 µM (inactive)
GI50 (SF-268): > 10 µM (inactive)
GI50 (U-251): > 10 µM (inactive)
GI50 (HL-60): 2.4 µM (inactive)
GI50 (A498): > 10 µM (inactive)
GI50 (SNB-19): > 10 µM (inactive)
GI50 (OVCAR-8): > 10 µM (inactive)
